Source: patent US9593305B2, “Differentiation of pluripotent stem cells” (Janssen Biotech, Inc., priority 2008, dated 2017)

What was measured:
[1] = tested on: H1 human embryonic stem cells; test: Screen of CDK, GSK3 and TRK inhibitors with or without GDF-8, SOX17 and cell number (Example 20, Table 17); type: cell-based; conditions: Plate 1; for Cell Number, % of positive control / Sox17 Expression, % of positive control: positive control = Activin A/Wnt3a
Description: Briefly, clusters of H1 human embryonic stem cells were grown on reduced growth factor Matrigel™ (Invitrogen; Cat #356231) coated tissue culture plastic. Cells were passaged using collagenase (Invitrogen; Cat #17104-019) treatment and gentle scraping, washed to remove residual enzyme, and plated with even dispersal at a ratio of 1:1 (surface area) on reduced growth factor […]™ (BD Biosciences; Cat #356231)-coated 96-well black plates (Packard ViewPlates; PerkinElmer; Cat #6005182) using volumes of 100 μl/well. Cells were allowed to attach and then recover log phase growth over a 1 to 3 day time period, feeding daily with MEF conditioned medium supplemented with 8 ng/ml bFGF (R&D Systems; Cat #233-FB). Plates were maintained at 37° C., 5% CO2 in a humidified box throughout the duration of assay.
Screening was conducted using the compounds described in Table 16. […] Compounds were made available as 5 mM stocks in 96-well plate format, solubilized in 100% DMSO (Sigma; Cat #D2650) and stored at −80° C. The library compounds were further diluted to an intermediate concentration of 0.2 mM in 50 mM HEPES (Invitrogen; Cat #15630-080), 20% DMSO and stored at 4° C. Test conditions were performed in triplicate, feeding on alternating days over a four-day assay period. Assay was initiated by aspirating culture medium from each well followed by three washes in PBS (Invitrogen; Cat #14190) to remove residual growth factors. On the first day of assay, test volumes of 200 μl per well were added to each well using DMEM:F12 base medium (Invitrogen; Cat #11330-032) supplemented with 0.5% FCS (HyClone; Cat #SH30070.03) and 100 ng/ml GDF-8 (R&D Systems, Cat #788-G8) plus 2.5 μM compound. A parallel set of test samples were treated in an identical manner but omitting GDF-8 from the medium. On the third day of assay, test volumes of 100 μper well were added to each well using DMEM:F12 base medium supplemented with 2% FCS plus 100 ng/ml GDF-8 (R&D Systems, Cat #788-G8). […] Positive control samples contained the same base medium supplemented with FCS and 100 ng/ml recombinant human activin A (PeproTech; Cat #120-14) throughout the four day assay along with Wnt3a (20 ng/ml) addition on days 1 and 2. Negative control samples contained DMEM:F12 base medium supplemented with FCS.
At the conclusion of four-days of culture, assay plates were washed twice with PBS (Invitrogen; Cat #14190), fixed with 4% paraformaldehyde (Alexis Biochemical; Cat #ALX-350-011) at room temperature for 20 minutes, then washed three times with PBS and permeabilized with 0.5% Triton X-100 (Sigma; Cat #T8760-2) for 20 minutes at room temperature. Cells were washed again three times with PBS and blocked with 4% chicken serum (Invitrogen; Cat #16110082) in PBS for 30 minutes at room temperature. Primary antibody (goat anti-human SOX17; R&D Systems; Cat #AF1924) was diluted 1:100 in 4% chicken serum and added to each well for one hour at room temperature. Alexa Fluor 488 conjugated secondary antibody (chicken anti-goat IgG; Molecular Probes; Cat #AZ1467) was diluted 1:200 in PBS and added to each sample well after washing three times with PBS. To counterstain nuclei, 4 μg/ml Hoechst 33342 (Invitrogen; Cat #H3570) was added for ten minutes at room temperature. Plates were washed once with PBS and left in 100 μl/well PBS for imaging.
Imaging was performed using an IN Cell Analyzer 1000 (GE Healthcare) utilizing the 51008bs dichroic for cells stained with Hoechst 33342 and Alexa Fluor 488. Exposure times were optimized from positive control wells and from untreated negative control wells stained with secondary antibody alone. Images from 15 fields per well were acquired to compensate for any cell loss during the bioassay and subsequent staining procedures. Measurements for total cell number and total SOX17 intensity were obtained from each well using IN Cell Developer Toolbox 1.7 (GE Healthcare) software. […]

[2] = tested on: CDK, GSK3, and/or TRK signaling pathways; test: Primary selectivity of the proprietary small molecules (Table 16); conditions: as listed in Table 17
Description: A subset of 14 proprietary small molecules, known to have specificity for the CDK, GSK3, and/or TRK signaling pathways were evaluated for their potential to differentiate human embryonic stem cells to cells expressing markers characteristic of the definitive endoderm lineage.

[3] = compound in combination with GDF8

| SMILES | Cell Number, Average Total Cell Number ([1]; compound alone, No GDF8) | Sox17 Expression, Average Total Intensity ([1]; compound alone, No GDF8) | Cell Number, % of positive control ([1]; compound alone, No GDF8) | Sox17 Expression, % of positive control ([1]; compound alone, No GDF8) | Cell Number, Average Total Cell Number [1, 3] | Sox17 Expression, Average Total Intensity [1, 3] | Cell Number, % of positive control [1, 3] | Sox17 Expression, % of positive control [1, 3] | Compound Selectivity [2] | Compound Selectivity ([2]; GDF8 treatment) | Compound Selectivity ([2]; No GDF8 treatment) |
| --- | --- | --- | --- | --- | --- | --- | --- | --- | --- | --- | --- |
| COc1ccc(Nc2cc(Nc3cc(Cl)ccc3O)ncn2)cc1CCl [Compound 10, 4-Chloro-2-[(6-{[3-(chloromethyl)-4-methoxyphenyl]amino}pyrimidin-4-yl)amino]phenol] | 7011 | −6.6E+05 | 48.4 % of positive control | −0.3 % of positive control | 4627 | 6.6E+07 | 32.0 % of positive control | 28.6 % of positive control | Selective for CDK |  |  |
| COCCCNS(=O)(=O)c1ccc(Nc2ncc3cnn(C4CCCCC4)c3n2)cc1 [Compound 9, 4-[(1-Cyclohexyl-1H-pyrazolo[3,4-d]pyrimidin-6-yl)amino]-N-[3-(methyloxy)propyl]benzenesulfonamide] | 7156 | −4.2E+04 | 49.4 % of positive control | 0.0 % of positive control | 4816 | 4.5E+07 | 33.3 % of positive control | 19.4 % of positive control | Selective for CDK |  |  |
| O=C(O)c1cc(Nc2ncc3nnn(-c4ccccc4)c3n2)ccc1F [Compound 7, 2-Fluoro-5-[(3-phenyl-3H-[1,2,3]triazolo[4,5-d]pyrimidin-5-yl)amino]benzoic acid] | 3 | −1.4E+06 | 0.0 % of positive control | −0.6 % of positive control | 5296 | 7.0E+07 | 36.6 % of positive control | 30.4 % of positive control |  | Selective for GSK | Selective for CDK |
| N#Cc1cnc2nc1Nc1cccc(c1)OCCNC(=O)c1cccc(c1)N2 [Compound 41, 18-Oxo-14-oxa-2,4,8,17,25-pentaazatetracyclo[17.3.1.1˜3,7˜0.1˜9,13˜]pentacosa-1(23), 3(25), 4,6,9(24), 10,12,19,21-nonaene-6-carbonitrile] | 9995 | 5.9E+04 | 69.0 % of positive control | 0.0 % of positive control | 4455 | 3.4E+07 | 30.8 % of positive control | 14.8 % of positive control | Selective for GSK |  |  |
| CN1CCCc2cccc(c2)-c2nnc([nH]2)Nc2cccc(c2)CN2CCN(CC2)C(=O)C1 [Compound 43, 21-Methyl-1,8,10,11,21,24,30-heptaazapentacyclo[22.2.2.1˜3,7˜0.1˜9,12˜0.1˜13,17˜]hentriaconta-3(31). 4,6,9,11,13(29), 14,16-octaen-23-one] | 8610 | −2.1E+05 | 59.5 % of positive control | −0.1 % of positive control | 6682 | 5.4E+07 | 46.2 % of positive control | 23.4 % of positive control | Selective for Trk |  |  |
| O=C1COc2cccc(c2)Nc2nccc(n2)Nc2cccc(c2)OCCCN1 [Compound 42, 14,21-Dioxa-2,4,8,18,28-pentaazatetracyclo[20.3.1.1˜3,7˜0.1˜9,13˜]octacosa-1(26), 3(28), 4,6,9(27), 10,12,22,24-nonaen-19-one] | 8700 | −2.4E+05 | 60.1 % of positive control | −0.1 % of positive control | 5686 | 4.9E+07 | 39.3 % of positive control | 21.2 % of positive control | Selective for CDK |  |  |
| O=C(O)c1ccc(Nc2ncc3nnn(-c4cccc(F)c4)c3n2)cc1 [Compound 6] | 14827 | −1.8E+05 | 102.4 % of positive control | −0.1 % of positive control | 5118 | 5.8E+07 | 35.4 % of positive control | 25.2 % of positive control | Selective for GSK |  |  |
| Nc1nccc(-c2cccc(Nc3ncc4nnn(-c5cccc(CNC(=O)C6CC6)c5)c4n3)c2)n1 [Compound 8, N-{[3-(5-{[3-(2-Aminopyrimidin-4-yl)phenyl]amino}-3H-1-[1,2,3]triazolo[4,5-d]pyrimidin-3-yl)phenyl]methyl}cyclopropanecarboxamide] | 13235 | 3.8E+05 | 91.4 % of positive control | 0.2 % of positive control | 5018 | 4.7E+07 | 34.7 % of positive control | 20.4 % of positive control | Selective for GSK |  |  |
